# “And” between values parts separate entries of the source, which are not always exact repeats. Identical values can stand only once. Like-named read-outs stand apart in the source and are kept apart here.
# Columns and labels:
# [1] = system: Staphylococcus aureus ATCC 6538P; assay: broth microdilution MIC, S. aureus; type: cell-based
# Description: (§1) The antimicrobial activities of the heteroaromatic ligands, Mn(II) complexes, and commercially available drug streptomycin were tested against standard bacterial strains: Staphylococcus aureus ATCC 6538P, Escherichia coli ATCC 8739, Pseudomonas aeruginosa PAO1 (biofilm model strain), and Pseudomonas aeruginosa LES B58 (clinical isolate). The P. aeruginosa PAO1 and LES B58 isolates were derived from the International Pseudomonas aeruginosa Reference Panel (http://bccm.belspo.be/about-us/bccm-lmg, accessed on 30 March 2021).
# (§2) All bacteria species were cultivated in trypticase soy broth (TSB) medium (Biocorp, Warsaw, Poland) for 18 h at 37 °C with shaking (160 rpm). Overnight cultures of bacteria were diluted 1:100 into fresh TSB medium and then placed in each of the 96 wells of a microtiter transparent plate (Greiner, Monroe, NC, USA). The manganese(II) complexes—[Mn-pyOH-SO4]n, Mn-imCHO-NO3, Mn-imCHO-Cl, Mn-dipyCO-NO3—and the ligands—pyOH, pyCOOH—were prepared by dissolving compounds in distilled water. […] The starting stock solution was of 2-mM concentration.
# (§3) The quantitative assay of the antibacterial activity was performed by the broth microdilution method, in 96-well microtiter plates, in order to establish the minimum inhibitory concentration (MIC). To this purpose, serial two-fold dilutions of the compounds ranging between 1 and 0.0625 mM were made. The details of the experiment were presented in our previous paper.
# [2] = system: Escherichia coli ATCC 8739; assay: broth microdilution MIC, E. coli; type: cell-based
# Description: as §1, §2, §3
# [3] = system: Pseudomonas aeruginosa PAO1; assay: broth microdilution MIC, P. aeruginosa PAO1; type: cell-based; details: P. aeruginosa PAO1, planktonic cells
# Description: as §1, §2, §3
# [4] = system: Pseudomonas aeruginosa LES B58; assay: broth microdilution MIC, P. aeruginosa LES B58; type: cell-based
# Description: as §1, §2, §3
# [5] = system: P. aeruginosa PAO1 biofilm; assay: biofilm formation, crystal violet staining assay; type: cell-based, Pseudomonas aeruginosa; details: for % Inhibit. Biofilm (0.25 mM) / % Inhibit. Biofilm (0.5 mM): P. aeruginosa PAO1, vs untreated control
# Description: as §2
# To evaluate the effect of the compounds on P. aeruginosa biofilm formation, a crystal violet staining assay was used, following previously described protocols. The concentration of the investigated compounds was in the range 0.0625–1 mM. The amount of biofilm formed was determined by measuring the absorbance at λ = 595 nm with the Infinite M200 PRO microplate reader (Tecan, Männedorf, Switzerland). The measurement results, expressed in absorbance units, were converted into percentages to allow the comparison of numerical data obtained in different experiments.
# [6] = molecular target: T1, catalase from the bovine liver (Bos taurus, UniProt P00432); assay: catalase activity in the presence of the Mn(II) complexes (absorbance at 240 nm); type: biochemical; details: 0.5 mM complex, vs catalase alone
# T1 construct: The catalase from the bovine liver solution; purchased Sigma–Aldrich; host or cells: bovine liver
# T1 sequence (P00432 2-527 limits assumed): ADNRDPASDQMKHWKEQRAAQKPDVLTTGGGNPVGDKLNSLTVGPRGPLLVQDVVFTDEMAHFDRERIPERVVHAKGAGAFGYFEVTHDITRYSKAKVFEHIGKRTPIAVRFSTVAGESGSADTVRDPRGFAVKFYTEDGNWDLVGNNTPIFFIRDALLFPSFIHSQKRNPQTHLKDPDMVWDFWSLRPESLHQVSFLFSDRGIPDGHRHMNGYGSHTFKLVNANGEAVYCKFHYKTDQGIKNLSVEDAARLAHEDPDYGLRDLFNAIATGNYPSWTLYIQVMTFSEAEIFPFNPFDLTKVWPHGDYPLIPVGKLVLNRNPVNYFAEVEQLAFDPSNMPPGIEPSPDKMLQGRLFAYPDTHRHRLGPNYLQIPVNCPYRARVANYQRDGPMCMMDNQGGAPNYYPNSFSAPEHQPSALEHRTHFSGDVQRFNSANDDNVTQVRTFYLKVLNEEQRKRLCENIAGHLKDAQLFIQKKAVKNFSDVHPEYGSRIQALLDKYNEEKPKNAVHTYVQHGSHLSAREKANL
# Description: First, the complexes were incubated with the catalase in the presence of a phosphate buffer, and then hydrogen peroxide was added thereto. To study the effect of the manganese complexes on the activity of CAT, its performance, in the presence of similar concentrations of the Mn complexes (0.5 mM), was investigated. The percentage of absorbance reduction over time was recorded at 240 nm. The positive control was the catalase sample in the absence of the Mn(II) complex. Figure 12 illustrates the effect of the Mn(II) complexes on the catalase activity.
# The effect of the manganese complexes on the activity of catalase (CAT) was determined using the spectrophotometric method. The decrease in absorbance due to hydrogen peroxide depletion was recorded at 240 nm by the V-780 UV-Vis/NIR spectrophotometer (Jasco, Easton, MD, USA). The tests were performed in a 50-mM potassium phosphate buffer (PBS) at 37 °C, pH = 7.0. The catalase from the bovine liver solution (Sigma–Aldrich, St. Louis, MO, USA, lyophilized powder, ≥10,000 units/mg protein) was prepared in the PBS buffer as an initial dilution of ~1000 units/mL at 37 °C. The hydrogen peroxide solution, approximately 0.03% (w/w), was prepared by dilution in the PBS buffer to achieve the absorbance close to 1 a.u, and the PBS was used as a blank. The manganese complexes were diluted in the PBS buffer to stock the concentration of 1 mM. The mixture of 500 µL of the hydrogen peroxide, 1 µL of the catalase (final 1U of catalase activity), and 500 µL of the manganese complexes, previously incubated in a water bath at 37 °C, was added to a quartz cuvette (10 mm, 1 mL), closed by a cover, and placed in the spectrophotometer. The absorbance readings were performed in 10-s intervals during the first minute of the incubation time at 37 °C. The results were presented as the dependence on the percentage of the absorbance reduction over time.
# [7] = system: primary human fibroblasts (VH10); assay: cytotoxicity, MTT test; type: cell-based; details: VH10 cells, 24 h, 15–1000 µM
# Description: Primary human fibroblasts (VH10) were cultured at 37 °C in a humidified 5% CO2 atmosphere in plastic dishes in Dulbecco’s modified eagle medium (DMEM) supplemented with 10% heat inactivated fetal calf serum, 2 mM of l-glutamine, and antibiotics (100 units/mL penicillin and 100 µg/mL streptomycin). Cytotoxic properties of manganese complexes were measured by EZcount^TM MTT cell assay kit (HiMedia Laboratories Pvt., Ltd., Mumbai, India) in accordance with the manufacturer’s instructions. Cells were seeded into a 96-well plate and incubated with manganese complexes in the concentration range of 15–1000 µM for 24 h at 37 °C in a humidified atmosphere of 5% CO2. After incubation, a solution of MTT (3-[4,5-dimethylthiazol-2-yl]-2, 5-diphenyl tetrazolium bromide) at a concentration (1 mg/mL) was added to each well. After incubation at 37 °C for 4 h, 100 µL of 0.04 M HCl in isopropanol was added to each well and mixed thoroughly to dissolve the dark blue crystals. The measurement of absorbance of the solution related to the number of live cells was conducted on a TECAN Spark Microplate Reader (TECAN, Männedorf, Switzerland) at 570 nm with a reference wavelength 600 nm. All samples were tested in three independent experiments. Results were normalized to the control.
# Inhibitory concentrations (IC50) represent the concentrations of the tested samples required to inhibit 50% cell proliferation and were calculated from the mean values of data from wells.
# [8] = system: pyoverdine secretion by P. aeruginosa PAO1; assay: pyoverdine production (spectrofluorometric); type: cell-based, Pseudomonas aeruginosa; details: 0.5 mM complexes, 24 h, vs negative control (TSB medium with inoculated bacteria)
# Description: In the experiment the spectrofluorometric method was used, and data were expressed as the relative light units (RLU).
# Pyoverdine determination was performer in TSB medium. Measurement of pyoverdine fluorescence was performed at the excitation wavelength λ = 398 nm and the emission wavelength λ = 455 nm as described previously [66]. Experiments were carried out in triplicate in 96-well black flat-bottomed microtiter plates (Greiner, Monroe, NC, USA) for 24 h in cell-free culture medium using an Infinite M200PRO (Tecan, Männedorf, Switzerland). The assay was performed with the series of Mn(II) complexes (0.5 mM) and streptomycin as a positive control, and TSB medium with inoculated bacteria as a negative control. The siderophore secretion assay was conducted as three independent repeats. The results obtained were not disturbed by the emission band characteristic of the Mn(II) complexes.
# [9] = P. aeruginosa LES B58, planktonic cells
# [10] = Staphylococcus aureus, ATCC6538P, S. aureus, planktonic cells, read-out: MIC
# [11] = Escherichia coli, ATCC8739, planktonic cells, read-out: MIC
# [12] = Pseudomonas aeruginosa, read-out: MIC
# [13] = Pseudomonas aeruginosa, LESB58, P. aeruginosa LES B58, planktonic cells, read-out: MIC
SMILES,"MIC ([1]; S. aureus, planktonic cells)",MIC ([2]; planktonic cells),MIC [3],"MIC [4, 9]",other results
O.O.O.O.O=[N+]([O-])[O-].O=[N+]([O-])[O-].[Mn+2] [Mn(NO3)2·4H2O],> 1 mM and > 251 μg/ml,> 1 mM and > 251 μg/ml,> 1 mM and > 251 μg/ml,> 1 mM and > 251 μg/ml,–
O=C(c1ccccn1)c1ccccn1.O=C(c1ccccn1)c1ccccn1.O=[N+]([O-])[O-].O=[N+]([O-])[O-].[Mn+2] [Mn-dipyCO-NO3],> 1 mM and > 547 μg/ml,> 1 mM and > 547 μg/ml,> 1 mM and > 547 μg/ml,> 1 mM and > 547 μg/ml,% Inhibit. Biofilm (0.25 mM) [5]: 21%; % Inhibit. Biofilm (0.5 mM) [5]: 36%; Action on catalase activity [6]: attenuate the catalase activity
Cc1[nH]cnc1C=O.Cc1[nH]cnc1C=O.[Cl-].[Cl-].[Mn+2] [Mn-imCHO-Cl],> 1 mM and > 346 μg/ml,> 1 mM and > 346 μg/ml,> 1 mM and > 346 μg/ml,> 1 mM and > 346 μg/ml,% Inhibit. Biofilm (0.25 mM) [5]: 24%; % Inhibit. Biofilm (0.5 mM) [5]: 29%; IC50 [7]: > 1000 µM; Action on catalase activity [6]: attenuate the catalase activity
O.O.O.O.[Cl][Mn][Cl] [MnCl2·4H2O],> 1 mM and > 198 μg/ml,> 1 mM and > 198 μg/ml,> 1 mM and > 198 μg/ml,> 1 mM and > 198 μg/ml,–
O.O=S(=O)([O-])[O-].[Mn+2] [MnSO4·H2O],> 1 mM and > 169 μg/ml,> 1 mM and > 169 μg/ml,> 1 mM and > 169 μg/ml,> 1 mM and > 169 μg/ml,–
"[H]/N=C(/N)N[C@H]1[C@H](O)[C@@H](O)[C@H](O[C@@H]2O[C@@H](C)[C@](O)(C=O)[C@H]2O[C@@H]2O[C@@H](CO)[C@H](O)[C@@H](O)[C@@H]2NC)[C@@H](N/C(N)=N\[H])[C@@H]1O [Streptomycin, reference compound]",–,–,–,–,"MIC ([1]; Staphylococcus aureus, ATCC6538P): 125 µM; MIC [1, 10]: 73 µg/mL; MIC [2, 11]: 62.5 µM and 36 µg/mL; MIC [3, 12]: 62.5 µM and 36 µg/mL; MIC ([4]; Pseudomonas aeruginosa, LESB58): 125 µM; MIC [4, 13]: 73 µg/mL; decrease of pyoverdine production [8]: 96%"
"O=C(c1ccccn1)c1ccccn1 [dipyCO, dipyridin-2-ylmethanone]",–,–,–,–,"MIC [1, 10]: > 1000 µM and > 184 µg/mL; MIC [2, 11]: > 1000 µM and > 184 µg/mL; MIC [3, 12]: > 1000 µM and > 184 µg/mL; MIC [4, 13]: > 1000 µM and > 184 µg/mL; inhibition at 1000 µM ([5]; Pseudomonas aeruginosa, PAO1, 1 mM, P. aeruginosa biofilm): 49%"
"Cc1nc[nH]c1C=O [imCHO, 5(4)-carbaldehyde-4(5)-methylimidazole]",> 1 mM and > 110 μg/ml,> 1 mM and > 110 μg/ml,> 1 mM and > 110 μg/ml,> 1 mM and > 110 μg/ml,–
"O=C(O)c1cccnc1C(=O)O [pyCOOH, pyridine-2,3-dicarboxylic anion]",> 1 mM and > 167 μg/ml,> 1 mM and > 167 μg/ml,> 1 mM and > 167 μg/ml,> 1 mM and > 167 μg/ml,–
"OCc1ccccn1 [pyOH, 2-hydroxymethylpyridyne]",> 1 mM and > 109 μg/ml,> 1 mM and > 109 μg/ml,> 1 mM and > 109 μg/ml,> 1 mM and > 109 μg/ml,–
